In brackets after ≈: the same amount, converted by molar mass. Like-named read-outs stand apart in the source and are kept apart here.
Assays:
Format in all cases: cell-based
[1] = system: VRE-BM4147 (vancomycin resistant enterococci); experiment: MIC assay, VRE strain BM4147; conditions: 25 μg/mL Vancomycin - 24 h; for MIC: Enterococcus, VRE, read-out: MIC Assay VRE Strains: BM4147 van25
Experimental: (§1) These assays are adapted from NCCLS protocols M7-A4 and M27-A (NCCLS vol 17:9 and vol 17:2) as modified by Sandven, S. Clin. Micro. (1999) 37:12, p.3856-3859. MIC values for Aspergillus fumigatus were determined using NCCLS protocol M38-P.
(§2) All compounds were dissolved in 100% DMSO to a stock concentration of 10 mM and use fresh or stored at −80° C. Stock compounds were kept frozen until needed and used freshly with no more then one freeze-thaw cycle. When used for test purposes, compounds were diluted in the appropriate media depending on the organism being tested.
(§3) For yeast and aspergillus species, seven 1:2 serial dilutions of compound in appropriate media buffered with MOPS at pH 7.0 were prepared such that the final starting test compound concentrations were 50.0 uM for yeast and 50 uM aspergillus species. For bacteria, dilutions were made in growth media used for the particular bacteria being tested.
(§4) Inoculums are made in the same manner as yeast except all dilutions are made in normal saline, with a final dilution of 1:200 and an inoculum of 10 μL. VRE are vancomycin resistant enterococci, BM4147 and UCD-3 represent two different sources of VRE. MRSA are […] resistant Staphylococcus Aureus.

[2] = system: VRE-UCD3 (vancomycin resistant enterococci); experiment: MIC assay, VRE strain UCD-3; conditions: 25 μg/mL Vancomycin - 24 h; for MIC: Enterococcus, VRE, read-out: MIC Assay VRE Strains: UCD-3 van25
Experimental: as §1, §2, §3, §4

Candida albicans = experiment: MIC assay, yeast C. albicans; conditions: RPMI, 48 h, Alamar Blue; for MIC: Candida albicans
Pseudomonas aeruginosa = experiment: MIC assay, P. aeruginosa; conditions: CAMHB, 16 h
Experimental: as §1, §2, §3, §4

Staphylococcus aureus = experiment: MIC assay, S. aureus; conditions: CAMHB, 16 h
Experimental: as §1, §2, §3, §4

Bacillus cereus = experiment: MIC assay, B. cereus; conditions: CAMHB, 16 h; for MIC: Bacillus cereus, read-out: MIC Assay Other Strains: B. cereus
Experimental: as §1, §2, §3, §4

WST-CEM T-cell line = experiment: Toxicity screen on WST-CEM T-cell line
Experimental: Toxicity screen was done on a WST-CEM T-cell line and the minimum percent verses a no drug control was measured.

E coli = experiment: MIC assay, E coli
Experimental: as §1, §2, §3, §4

[3] = system: MRSA (methylacillin resistant Staphylococcus Aureus); experiment: MIC assay, MRSA; conditions: for MIC: Staphylococcus aureus, MRSA
Experimental: as §1, §2, §3, §4

Aspergillus fumigatus = experiment: MIC assay, filamentous fungi A. fumigatus; conditions: 48 h at 35C, no visible growth; for MIC: Aspergillus fumigatus
[4] = WST-CEM T-cell line, ND = no drug control

| Compound | MIC Assay VRE Strains: BM4147 van25 [1] [µM] | MIC Assay VRE Strains: UCD-3 van25 [2] [µM] | MIC Assay C. Albicans (Candida albicans) [µM] | MIC Assay Other Strains: P. aeruginosa (Pseudomonas aeruginosa) [µM] | MIC Assay Other Strains: S. aureus (Staphylococcus aureus) [µM] | MIC Assay Other Strains: B. cereus (Bacillus cereus) [µM] | MIC [1] [µM] | MIC [2] [µM] | MIC (Candida albicans) [µM] | CEM: toxicity screen, minimum percent verses a no drug control (WST-CEM T-cell line; [4]) [% ND] | MIC (E coli) [µM] | MIC [3] [µM] | MIC (Aspergillus fumigatus) [µM] | MIC (Bacillus cereus) [µM] | CEM: toxicity screen, minimum percent verses a no drug control (WST-CEM T-cell line) [% ND] | MIC Assay E coli (E coli) [µM] | MIC Assay MRSA [3] [µM] | MIC Assay A fumigatus (Aspergillus fumigatus) [µM] |
| --- | --- | --- | --- | --- | --- | --- | --- | --- | --- | --- | --- | --- | --- | --- | --- | --- | --- | --- |
| 1,5-bis-{4-[(NH2(CH2)2CONH)-1-methyl-1H-pyrrol-2-yl-carbonylamino]-benzimidazole [Compound 77] | >45.5 | >45.5 | >44.4 | >45.5 | 45.5 | 22.7 | – | – | – | – | – | – | – | – | – | – | – | – |
| 1,5-bis-{4-[(NH2(CH2)3CONH)-1-methyl-1H-pyrrol-2-yl-carbonylamino]-benzimidazole [Compound 78] | >45.5 | >45.5 | – | >45.5 | 45.5 | 22.7 | – | – | – | – | – | – | – | – | – | – | – | – |
| 1,5-bis-{4-[(NH2CH2CONH)-1-methyl-1H-pyrrol-2-yl-carbonylamino]-benzimidazole [Compound 76] | >45.5 | >45.5 | >44.4 | >45.5 | >45.5 | >45.5 | – | – | – | – | – | – | – | – | – | – | – | – |
| Cn1cc(NC(=O)CNC(=N)N)cc1C(=O)Nc1ccc2[nH]c(NC(=O)c3cc(NC(=O)CNC(=N)N)cn3C)nc2c1 [Compound 79] | 45.5 | 11.4 | – | >45.5 | >45.5 | 11.4 (≈ 6.73 µg/mL) | – | – | – | – | – | – | – | – | – | – | – | – |
| Cn1cc(NC(=O)CCNC(=N)N)cc1C(=O)Nc1ccc2[nH]c(NC(=O)c3cc(NC(=O)CCNC(=N)N)cn3C)nc2c1 [Compound 80] | >45.5 | >45.5 | >44.4 | >45.5 | >45.5 | 5.7 (≈ 3.53 µg/mL) | – | – | – | – | – | – | – | – | – | – | – | – |
| Cn1cc(NC(=O)CCCNC(=N)N)cc1C(=O)Nc1ccc2[nH]c(NC(=O)c3cc(NC(=O)CCCNC(=N)N)cn3C)nc2c1 [Compound 81] | >45.5 | >45.5 | 22.2 (≈ 14.4 µg/mL) | >45.5 | 45.5 (≈ 29.4 µg/mL) | 5.7 (≈ 3.69 µg/mL) | – | – | – | – | – | – | – | – | – | – | – | – |
| NCC(=O)Nc1cc(C(=O)NCCNC(=O)c2cc(NC(=O)CN)cn2CC2CC2)n(CC2CC2)c1 [Compound 169, Bis-1,2-[4-(2-amino-acetylamino)-1-cyclopropylmethyl-1H-pyrrol-2-yl-carbonylamino]-ethane] | – | – | – | – | – | – | > 45.5 | > 45.5 | > 44.4 | 100 | 45.5 (≈ 22.7 µg/mL) | > 45.5 | > 50 | > 45.5 | – | – | – | – |
| CC(C)C(N)C(=O)Nc1cc(C(=O)NCCNC(=O)c2cc(NC(=O)C(N)C(C)C)cn2CC2CC2)n(CC2CC2)c1 (stereo not drawn) [Compound 170, Bis-1,2-[4-(2-amino-3-methyl-butyrylamino)-1-cyclopropylmethyl-1H-pyrrol-2-yl-carbonylamino]-ethane] | >45.5 | >45.5 | >44.4 | – | – | – | – | – | – | – | – | – | – | – | 90.0 | >45.5 | >45.5 | >50 |
| O=C(NC1CCC(NC(=O)c2cc(NC(=O)C3CCCN3)cn2CC2CC2)CC1)c1cc(NC(=O)C2CCCN2)cn1CC1CC1 (stereo not drawn) [Compound 171, Bis-trans-1,4-[4-(pyrrolidine-2-carbonyl-amino)-1-cyclopropylmethyl-1H-pyrrol-2-yl-carbonylamino]cyclohexane] | – | – | – | – | – | – | > 45.5 | > 45.5 | > 44.4 | 91.1 | > 45.5 | > 45.5 | > 50 | – | – | – | – | – |
| NCCCC(N)C(=O)N1CCCC1C(=O)Nc1cc(C(=O)NC2CCC(NC(=O)c3cc(NC(=O)C4CCCN4C(=O)C(N)CCCN)cn3CC3CC3)CC2)n(CC2CC2)c1 (stereo not drawn) [Compound 172, Bis-trans-1,4-{[4-(2,5-diamino-pentanoyl)pyrrolidine-2-carbonyl-amino]-1-cyclopropylmethyl-1H-pyrrol-2-yl-carbonylamino}cyclohexane] | >45.5 | >45.5 | >44.4 | – | – | – | – | – | – | – | – | – | – | – | 25.5 | >45.5 | >45.5 | >50 |
| NC(Cc1c[nH]cn1)C(=O)Nc1cc(C(=O)NC2CCC(NC(=O)c3cc(NC(=O)C(N)Cc4c[nH]cn4)cn3CC3CC3)CC2)n(CC2CC2)c1 (stereo not drawn) [Compound 173, Bis-trans-1,4-{4-[2-amino-3-(1H-imidazol-4-yl)propyonylamino]-1-cyclopropylmethyl-1H-pyrrol-2-yl-carbonylamino]cyclohexane] | >45.5 | >45.5 | >44.4 | – | – | – | – | – | – | – | – | – | – | – | 87.2 | >45.5 | >45.5 | >50 |
| N=C(N)NCC(=O)Nc1cc(C(=O)NCCNC(=O)c2cc(NC(=O)CNC(=N)N)cn2CC2CC2)n(CC2CC2)c1 [Compound 174] | – | – | – | – | – | – | > 45.5 | > 45.5 | > 44.4 | 92.9 | > 45.5 | > 45.5 | > 50 | – | – | – | – | – |
| CC(C)CCn1cc(NC(=O)CN)cc1C(=O)Nc1ccc(NC(=O)c2cc(NC(=O)CN)cn2CCC(C)C)cc1 [Compound 188a] | 11.4 | 11.4 | >44.4 | – | – | 22.7 (≈ 13.1 µg/mL) | – | – | – | 6.9 | – | – | – | – | – | 22.7 (≈ 13.1 µg/mL) | 11.4 (≈ 6.6 µg/mL) | >50 |
| CC(C)CCn1cc(NC(=O)CN)cc1C(=O)Nc1ccc2ccc(NC(=O)c3cc(NC(=O)CN)cn3CCC(C)C)cc2c1 [Compound 188b] | – | – | 22.2 (≈ 14 µg/mL) | – | – | 22.7 (≈ 14.3 µg/mL) | – | – | – | 9.2 | – | – | – | – | – | 22.7 (≈ 14.3 µg/mL) | – | >50 |
| CC(C)CCn1cc(NC(=O)CNC(=N)N)cc1C(=O)Nc1ccc(NC(=O)c2cc(NC(=O)CNC(=N)N)cn2CCC(C)C)cc1 [Compound 189a] | – | – | – | – | – | – | 11.4 | 11.4 | 22.2 (≈ 14.7 µg/mL) | 7.7 | 11.4 (≈ 7.56 µg/mL) | – | 12.5 (≈ 8.28 µg/mL) | 2.8 (≈ 1.86 µg/mL) | – | – | – | – |
| CC(C)CCn1cc(NC(=O)CNC(=N)N)cc1C(=O)Nc1ccc2ccc(NC(=O)c3cc(NC(=O)CNC(=N)N)cn3CCC(C)C)cc2c1 [Compound 189b] | – | – | – | – | – | – | – | 5.7 | – | 10.2 | 45.5 (≈ 32.4 µg/mL) | – | 3.1 (≈ 2.21 µg/mL) | 2.8 (≈ 2 µg/mL) | – | – | – | – |
| CC/N=C(/NCCN(C)C)Nc1cc(C(=O)Nc2ccc(NC(=O)c3cc(N/C(=N/CC)NCCN(C)C)cn3CCC(C)C)cc2)n(CCC(C)C)c1 [Compound 191] | – | – | – | – | – | – | – | 11.4 | 11.1 (≈ 8.29 µg/mL) | 3.7 | 22.7 (≈ 17 µg/mL) | – | 12.5 (≈ 9.34 µg/mL) | 5.7 (≈ 4.26 µg/mL) | – | – | – | – |
